Assay results published in PubChem BioAssay (NCI).
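Method: 48-hour compound exposure of cells in 96-well plates, five concentrations, linear interpolation of endpoints. GI50: concentration for 50% inhibition of growth. TGI marks complete inhibition of growth.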

Tests used:
Test in all cases: DTP human tumour cell line panel, 48 h
NCI/ADR-RES ovarian = test system: NCI/ADR-RES ovarian
HOP-62 NSCLC = test system: HOP-62 NSCLC
SW-620 colon = test system: SW-620 colon
SR leukemia = test system: SR leukemia
NCI-H460 lung = test system: NCI-H460 lung
DU-145 prostate = test system: DU-145 prostate
CAKI-1 renal = test system: CAKI-1 renal
BT-549 breast = test system: BT-549 breast
SK-MEL-28 melanoma = test system: SK-MEL-28 melanoma
A549 NSCLC = test system: A549 NSCLC

Row | SMILES | TGI (NCI/ADR-RES ovarian) [µM] | TGI (HOP-62 NSCLC) [µM] | TGI (SW-620 colon) [µM] | TGI (SR leukemia) [µM] | TGI (NCI-H460 lung) [µM] | TGI (DU-145 prostate) [µM] | TGI (CAKI-1 renal) [µM] | TGI (BT-549 breast) [µM] | TGI (SK-MEL-28 melanoma) [µM] | TGI (A549 NSCLC) [µM] | GI50 (NCI/ADR-RES ovarian) [µM] | GI50 (HOP-62 NSCLC) [µM] | GI50 (SW-620 colon) [µM] | GI50 (A549 NSCLC) [µM] | GI50 (SR leukemia) [µM] | GI50 (NCI-H460 lung) [µM] | GI50 (DU-145 prostate) [µM] | GI50 (CAKI-1 renal) [µM] | GI50 (BT-549 breast) [µM] | GI50 (SK-MEL-28 melanoma) [µM]
1 | O=C(CN1CCCCC1)c1ccc2[nH]c(=O)oc2c1 | > 100 | > 100 | > 100 | > 100 | > 100 | > 100 | > 100 | > 100 | > 100 |  |  |  |  |  |  |  |  |  |  | 
2 | CC(=O)Oc1ccc2c(c1)O/C(=C\c1ccc(N(C)C)cc1)C2=O | > 100 | > 100 | > 100 | > 100 | > 100 | > 100 | > 100 | > 100 | > 100 | > 100 |  |  |  |  |  |  |  |  |  | 
3 | CCOC(=O)c1nc2ccccc2nc1Nc1cc(OC)c(OC)c(OC)c1 | > 100 | > 100 |  | > 100 | > 100 | > 100 | > 100 | > 100 | > 100 | > 100 |  |  |  |  |  |  |  |  |  | 
4 | CCCSc1ccc2[nH]c(N3C(=O)/C(=C/c4ccc(O)c(OC)c4)N=C3c3ccccc3)cc2c1 | > 100 | > 100 | > 100 | > 100 | 10.1 | > 100 | > 100 | 46.4 | > 100 |  |  |  |  |  |  |  |  |  |  | 
5 | COC(=O)C12C(=O)CC3CCC1C32C(=O)OC (stereo not given) | > 100 | > 100 | > 100 | > 100 | > 100 | > 100 | > 100 | > 100 | > 100 | > 100 |  |  |  |  |  |  |  |  |  | 
6 | COc1cc(OC)c(-n2[nH]c(=O)n(C)c2=O)c(OC)c1 | > 100 |  | > 100 | > 100 | > 100 | > 100 | > 100 | > 100 | > 100 | > 100 |  |  |  |  |  |  |  |  |  | 
7 | CC1=C[C@H](C[C@]2(C)c3c(c4c(C)cccc4oc3=O)O[C@@H]2C)OC1=O | > 100 | > 100 | 75 | 61.3 | > 100 | > 100 | > 100 | 74.7 |  | > 100 |  |  |  |  |  |  |  |  |  | 
8 | COc1cc2ncnc(Nc3cccc(Br)c3)c2cc1OC | 23.9 | > 41.2 | > 50.2 | > 31.6 | 21.1 | 34.2 | > 52.1 | > 50.8 | > 44.9 | > 69.1 |  |  |  |  |  |  |  |  |  | 
9 | CCCCCCCCCCCCCOCCOCCOCCCCC(O)CCCCCCCCCC1=C[C@H](C)OC1=O (stereo not given in full) | 41.4 | > 100 | 76.9 | 34.2 | > 100 | 66.3 | 44.4 | 27.9 | 31.5 | 36.9 |  |  |  |  |  |  |  |  |  | 
10 | Fc1ccc(F)c(C=NC23CC4CC(CC(C4)C2)C3)c1 | > 10 | > 10 | > 10 | > 10 | > 10 | > 10 | > 10 | > 10 | > 10 | > 10 |  |  |  |  |  |  |  |  |  | 
11 | OC1C2CN3CCN(C2)CC1(c1ccccc1)C3 (stereo not given) | > 100 | > 100 | > 100 | > 100 |  | > 100 | > 100 | > 100 | > 100 |  |  |  |  |  |  |  |  |  |  | 
12 | Cc1cccc(-c2cc(=O)c3cccnc3[nH]2)c1 | > 100 | > 100 | > 100 | > 100 | > 100 | > 100 |  | > 100 | > 100 | > 100 |  |  |  |  |  |  |  |  |  | 
13 | CCN1CC2=C(OC(N)=C(C#N)C2c2ccc(Cl)cc2)/C(=C/c2ccc(Cl)cc2)C1 (stereo not given) | > 100 | 78.4 | > 100 | > 100 | > 100 | > 100 | 30.5 | > 100 | 42.9 | 49.1 |  |  |  |  |  |  |  |  |  | 
14 | COC(=O)C12CCCN1CCC2 | > 100 | > 100 | > 100 | > 100 | > 100 | > 100 | > 100 | > 100 | > 100 | > 100 |  |  |  |  |  |  |  |  |  | 
15 | CC(C)(C)c1ccc(O)c(C(O)c2ccccn2)c1 (stereo not given) | > 100 | > 100 | > 100 | > 100 | > 100 | > 100 | > 100 | > 100 | > 100 | > 100 |  |  |  |  |  |  |  |  |  | 
16 | CCCCOC(=O)Nc1ccc(S(=O)(=O)Nc2c(Cl)cccc2Cl)cc1 | 65.8 | > 100 | 90.1 | 48.7 | > 100 | > 100 | 82.7 | 60.7 | 81.5 | > 100 |  |  |  |  |  |  |  |  |  | 
17 | COC(=O)/C(=C(/C)c1ccco1)P(=O)(OC)OC | > 100 | > 100 | > 100 | > 100 |  | > 100 | > 100 | > 100 | > 100 | > 100 |  |  |  |  |  |  |  |  |  | 
18 | COc1ccccc1C1C(C#N)=C(N)SC(N)=C1C#N | > 100 | > 100 | > 100 | 83 | > 100 | > 100 | > 100 | > 100 | > 100 | > 100 | 43.9 | > 100 | > 100 | > 100 | 16.3 | 49.8 | 41.3 | 7.71 | 55.6 | 43.3
19 | Cc1ccc(N=NC(=Nc2ccc(F)cc2)c2ccc(N(CCC#N)CCC#N)cc2)cc1 | > 100 | > 100 | > 100 | > 100 | > 100 | > 100 | > 100 | > 100 | > 100 | > 100 |  |  |  |  |  |  |  |  |  | 
20 | CN(C(=O)Cc1cc(Cl)c(Cl)cc1NC(=O)CCCN)[C@H]1CCCC[C@@H]1N1CCCC1 | > 100 | > 100 | 91.2 | > 100 |  | > 100 | > 100 | > 100 | 33 | 83.1 |  |  |  |  |  |  |  |  |  | 
21 | CC(=O)N1N=C(c2ccccc2)NC(=O)C1c1cc(C)c(O)c(C)c1 (stereo not given) | 47.7 | 35.3 | > 100 | > 100 | > 100 | 57.5 | > 100 | 54.1 | > 100 | 66.1 |  |  |  |  |  |  |  |  |  | 
